Results as given in the supplement of paper PMC8671470.

Tests used:
Assay in all cases: cell viability (% survival relative to DMSO control); higher = less cytotoxic
Settings in all cases: 72 h
[1] = tested on: myeloid leukemia patient primary cells Pat.11
In short: (§1)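 Mononuclear cells from patients with AML or CML were thawed, purified on Ficoll and placed in RPMI 1640 with 10% FBS at 10,000 cells/well on 384-well plates. The plates came pre-printed with 70 compounds at five tenfold concentrations spanning 1–10,000 nM, in duplicate, and cells were exposed for 72 h. CellTiter-Glo gave viability, scaled between DMSO wells and wells with 10 μM proteasome inhibitor. Where reported, area under the curve was obtained from log-logistic fits with four parameters using the drc and PharmacoGx R packages.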

[2] = tested on: myeloid leukemia patient primary cells Pat.12
In short: as §1

[3] = tested on: myeloid leukemia patient primary cells Pat.13
In short: as §1

[4] = tested on: myeloid leukemia patient primary cells Pat.15
In short: as §1

[5] = tested on: myeloid leukemia patient primary cells Pat.1
In short: as §1

[6] = tested on: myeloid leukemia patient primary cells Pat.3
In short: as §1

[7] = tested on: myeloid leukemia patient primary cells Pat.4
In short: as §1

[8] = tested on: myeloid leukemia patient primary cells Pat.5
In short: as §1

[9] = tested on: myeloid leukemia patient primary cells Pat.6
In short: as §1

[10] = tested on: myeloid leukemia patient primary cells Pat.7
In short: as §1

[11] = tested on: myeloid leukemia patient primary cells Pat.9
In short: as §1

`CC(C)(C)c1ccc(S(=O)(=O)NCc2ccc(C(=O)Nc3cccnc3)cc2)cc1` [STF-31] gave a cell viability ([1]; 1 nM) of 95.5%, a cell viability ([1]; 10 nM) of 92.3% and a cell viability ([1]; 100 nM) of 99.3%. The cell viability ([1]; 1000 nM) was 2.57%, the cell viability ([1]; 10000 nM) was 1.37% and the cell viability ([2]; 1 nM) was 96.2%. The cell viability ([2]; 10 nM) was 96.2%, the cell viability ([2]; 100 nM) was 92.7% and the cell viability ([2]; 1000 nM) was 7.74%. It also gave a cell viability ([2]; 10000 nM) of 4.47%, a cell viability ([3]; 1 nM) of 94.8% and a cell viability ([3]; 10 nM) of 87.8%. The cell viability ([3]; 100 nM) was 87.7%, the cell viability ([3]; 1000 nM) was 8.95% and the cell viability ([3]; 10000 nM) was 9.54%. The cell viability ([4]; 1 nM) was 87.8%, the cell viability ([4]; 10 nM) was 90.9% and the cell viability ([4]; 100 nM) was 89.8%. For the same compound, the cell viability ([4]; 1000 nM) was 2.3%, the cell viability ([4]; 10000 nM) was 1.11% and the cell viability ([5]; 1 nM) was 95.2%. It also gave a cell viability ([5]; 10 nM) of 82%, a cell viability ([5]; 100 nM) of over 100% and a cell viability ([5]; 1000 nM) of 31.6%. For the same compound, the cell viability ([5]; 10000 nM) was 16.5%, the cell viability ([6]; 1 nM) was 90.6% and the cell viability ([6]; 10 nM) was 45.5%. It also gave a cell viability ([6]; 100 nM) of 6.65%, a cell viability ([6]; 1000 nM) of 2.19% and a cell viability ([6]; 10000 nM) of 1.78%. It also gave a cell viability ([7]; 1 nM) of 84.9%, a cell viability ([7]; 10 nM) of 83.8% and a cell viability ([7]; 100 nM) of 18%. For the same compound, the cell viability ([7]; 1000 nM) was 1.84%, the cell viability ([7]; 10000 nM) was 1.54% and the cell viability ([8]; 1 nM) was 78.8%. The cell viability ([8]; 10 nM) was 6.66%, the cell viability ([8]; 100 nM) was 0.912% and the cell viability ([8]; 1000 nM) was 0.265%. The cell viability ([8]; 10000 nM) was 2.27%, the cell viability ([9]; 1 nM) was 98% and the cell viability ([9]; 10 nM) was 85.7%. The cell viability ([9]; 100 nM) was 71.1%, the cell viability ([9]; 1000 nM) was 21.7% and the cell viability ([9]; 10000 nM) was 28.8%. For the same compound, the cell viability ([10]; 1 nM) was 80.1%, the cell viability ([10]; 10 nM) was 62.7% and the cell viability ([10]; 100 nM) was 7.78%. The cell viability ([10]; 1000 nM) was under 0%, the cell viability ([10]; 10000 nM) was under 0% and the cell viability ([11]; 1 nM) was 72.4%. The cell viability ([11]; 10 nM) was 28.7%, the cell viability ([11]; 100 nM) was 7.17% and the cell viability ([11]; 1000 nM) was under 0%. The cell viability ([11]; 10000 nM) was 0.773%.
For `CO[C@H]1C[C@@H]2CC[C@@H](C)[C@@](O)(O2)C(=O)C(=O)N2CCCC[C@H]2C(=O)O[C@H]([C@H](C)C[C@@H]2CC[C@@H](OC(=O)C(C)(CO)CO)[C@H](OC)C2)CC(=O)[C@H](C)/C=C(\C)[C@@H](O)[C@@H](OC)C(=O)[C@H](C)C[C@H](C)/C=C/C=C/C=C/1C` [Temsirolimus], the cell viability ([1]; 1 nM) was 94.5%, the cell viability ([1]; 10 nM) was 81.9% and the cell viability ([1]; 100 nM) was 79.7%. The cell viability ([1]; 1000 nM) was 88.4%, the cell viability ([1]; 10000 nM) was 74.4% and the cell viability ([2]; 1 nM) was 95.8%. The cell viability ([2]; 10 nM) was 98.4%, the cell viability ([2]; 100 nM) was 93.6% and the cell viability ([2]; 1000 nM) was 90.6%. The cell viability ([2]; 10000 nM) was 96.4%, the cell viability ([3]; 1 nM) was 74.5% and the cell viability ([3]; 10 nM) was 65.6%. The cell viability ([3]; 100 nM) was 61.8%, the cell viability ([3]; 1000 nM) was 92% and the cell viability ([3]; 10000 nM) was 55.3%. For the same compound, the cell viability ([4]; 1 nM) was 69.7%, the cell viability ([4]; 10 nM) was 47.8% and the cell viability ([4]; 100 nM) was 38.4%. The cell viability ([4]; 1000 nM) was 39.2%, the cell viability ([4]; 10000 nM) was 21.8% and the cell viability ([5]; 1 nM) was 89.3%. The cell viability ([5]; 10 nM) was 47.4%, the cell viability ([5]; 100 nM) was 52.9% and the cell viability ([5]; 1000 nM) was 70.1%. It also gave a cell viability ([5]; 10000 nM) of 51.8%, a cell viability ([6]; 1 nM) of 97.6% and a cell viability ([6]; 10 nM) of 86.7%. It also gave a cell viability ([6]; 100 nM) of 77.1%, a cell viability ([6]; 1000 nM) of 95.1% and a cell viability ([6]; 10000 nM) of under 0%. For the same compound, the cell viability ([7]; 1 nM) was 75.1%, the cell viability ([7]; 10 nM) was 50.9% and the cell viability ([7]; 100 nM) was 53.1%. It also gave a cell viability ([7]; 1000 nM) of 59%, a cell viability ([7]; 10000 nM) of 24.4% and a cell viability ([8]; 1 nM) of 46.4%. For the same compound, the cell viability ([8]; 10 nM) was 11.5%, the cell viability ([8]; 100 nM) was 3.45% and the cell viability ([8]; 1000 nM) was 58.7%. For the same compound, the cell viability ([8]; 10000 nM) was 0.265%, the cell viability ([9]; 1 nM) was 99.3% and the cell viability ([9]; 10 nM) was 88.2%. The cell viability ([9]; 100 nM) was 77.1%, the cell viability ([9]; 1000 nM) was 96.8% and the cell viability ([9]; 10000 nM) was 55.5%. For the same compound, the cell viability ([10]; 1 nM) was 77.4%, the cell viability ([10]; 10 nM) was 68.2% and the cell viability ([10]; 100 nM) was 55.9%. The cell viability ([10]; 1000 nM) was 73.9%, the cell viability ([10]; 10000 nM) was under 0% and the cell viability ([11]; 1 nM) was 78.2%. For the same compound, the cell viability ([11]; 10 nM) was 48.1%, the cell viability ([11]; 100 nM) was 25.1% and the cell viability ([11]; 1000 nM) was 49.6%. The cell viability ([11]; 10000 nM) was under 0%.
In the case of `CN1CCN(CCCN2c3ccccc3Sc3ccc(C(F)(F)F)cc32)CC1` [Trifluoperazine], the cell viability ([1]; 1 nM) is reported as over 100%, the cell viability ([1]; 10 nM) is reported as 100% and the cell viability ([1]; 100 nM) is reported as 99.9%. It also gave a cell viability ([1]; 1000 nM) of 77.4%, a cell viability ([1]; 10000 nM) of 12% and a cell viability ([2]; 1 nM) of 95.7%. It also gave a cell viability ([2]; 10 nM) of 89.5%, a cell viability ([2]; 100 nM) of 95.9% and a cell viability ([2]; 1000 nM) of 87%. For the same compound, the cell viability ([2]; 10000 nM) was 38.3%, the cell viability ([3]; 1 nM) was 90.5% and the cell viability ([3]; 10 nM) was 90.8%. For the same compound, the cell viability ([3]; 100 nM) was 99.3%, the cell viability ([3]; 1000 nM) was 56.4% and the cell viability ([3]; 10000 nM) was 39.1%. The cell viability ([4]; 1 nM) was 98.2%, the cell viability ([4]; 10 nM) was 91.9% and the cell viability ([4]; 100 nM) was over 100%. The cell viability ([4]; 1000 nM) was 78.4%, the cell viability ([4]; 10000 nM) was 45.9% and the cell viability ([5]; 1 nM) was 97.8%. It also gave a cell viability ([5]; 10 nM) of 93.7%, a cell viability ([5]; 100 nM) of 94.1% and a cell viability ([5]; 1000 nM) of 56%. For the same compound, the cell viability ([5]; 10000 nM) was 19.4%, the cell viability ([6]; 1 nM) was 99.7% and the cell viability ([6]; 10 nM) was 80.7%. The cell viability ([6]; 100 nM) was 65.1%, the cell viability ([6]; 1000 nM) was 11.8% and the cell viability ([6]; 10000 nM) was 0.738%. It also gave a cell viability ([7]; 1 nM) of 84.5%, a cell viability ([7]; 10 nM) of 98.7% and a cell viability ([7]; 100 nM) of 97.6%. For the same compound, the cell viability ([7]; 1000 nM) was 75.1%, the cell viability ([7]; 10000 nM) was 15.8% and the cell viability ([8]; 1 nM) was 99.9%. It also gave a cell viability ([8]; 10 nM) of 49.2%, a cell viability ([8]; 100 nM) of 88% and a cell viability ([8]; 1000 nM) of 0.912%. The cell viability ([8]; 10000 nM) was 3.33%, the cell viability ([9]; 1 nM) was 98.8% and the cell viability ([9]; 10 nM) was 94.2%. For the same compound, the cell viability ([9]; 100 nM) was 97.8%, the cell viability ([9]; 1000 nM) was 63.5% and the cell viability ([9]; 10000 nM) was 23.8%. The cell viability ([10]; 1 nM) was 87.1%, the cell viability ([10]; 10 nM) was 68.6% and the cell viability ([10]; 100 nM) was 42.7%. For the same compound, the cell viability ([10]; 1000 nM) was under 0%, the cell viability ([10]; 10000 nM) was under 0% and the cell viability ([11]; 1 nM) was 79.5%. For the same compound, the cell viability ([11]; 10 nM) was 52.7%, the cell viability ([11]; 100 nM) was 65.3% and the cell viability ([11]; 1000 nM) was 0.773%. The cell viability ([11]; 10000 nM) was 1.6%.
